Kd data for one compound are collected here from publication PMC10172623 (Computational and Structural Biotechnology Journal, 2023).

Assay [1] deals with TylF (Streptomyces fradiae, UniProt Q9S4D5). Nature of the assay: biochemical.
For assay [2], the target named is TylF (Streptomyces fradiae, UniProt Q9S4D5, Y139F). Nature of the assay: biochemical.

Structures are written as SMILES.

What is called Kd is a measure of binding affinity in units of concentration. A high value points to weaker binding.

Sequence of TylF (Streptomyces fradiae, UniProt Q9S4D5) (Q9S4D5 whole entry): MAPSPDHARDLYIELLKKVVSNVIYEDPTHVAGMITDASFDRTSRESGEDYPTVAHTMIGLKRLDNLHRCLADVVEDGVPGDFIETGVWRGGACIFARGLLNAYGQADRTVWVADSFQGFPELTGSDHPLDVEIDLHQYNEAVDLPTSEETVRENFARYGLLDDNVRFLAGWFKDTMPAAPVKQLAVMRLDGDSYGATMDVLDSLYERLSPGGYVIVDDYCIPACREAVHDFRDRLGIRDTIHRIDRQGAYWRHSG
Sequence of TylF (Streptomyces fradiae, UniProt Q9S4D5, Y139F) (Q9S4D5 whole entry Y139F): as the sequence (Q9S4D5 whole entry) above, with Y139F counted along it

With `C[S+](CC[C@H](N)C(=O)O)C[C@H]1O[C@@H](n2cnc3c(N)ncnc32)[C@H](O)[C@@H]1O` (some centres unmarked) [SAM], the Kd on TylF [1] is 162 ± 91.6 µM; at TylF [2], 265 ± 24.3 µM.
